Patent US20250346585A1 (Alexion Pharmaceuticals, Inc., priority 2022, published 2025)

Biological target: Human complement C1s enzyme (Homo sapiens (Human), UniProt P09871)
Assay: Human C1s enzyme assay
Assay type: biochemical
Settings: Human C1s enzyme assay of Example 3; read-out: IC50 (Stars)
Method in brief: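 Purified serum-derived human C1s (1.16 nM final) preincubated 5 min at room temperature with compound in 50 mM Tris, 1 M NaCl, pH 7.5. Z-L-Lys-SBzl thioester substrate and DTNB added (100 μM each, final); A405 read every 30 s for 30 min. IC50 from nonlinear regression of reaction rates against compound concentration.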

Sequence of Human complement C1s enzyme (P09871 438-688 limits assumed): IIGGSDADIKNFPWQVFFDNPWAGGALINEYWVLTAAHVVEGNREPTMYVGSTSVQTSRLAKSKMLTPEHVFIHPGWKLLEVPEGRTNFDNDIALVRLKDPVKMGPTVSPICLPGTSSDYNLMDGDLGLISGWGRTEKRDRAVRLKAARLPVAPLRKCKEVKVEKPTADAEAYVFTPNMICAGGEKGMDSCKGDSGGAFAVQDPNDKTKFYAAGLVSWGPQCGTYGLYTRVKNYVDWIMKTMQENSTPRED
Sequence of Human complement C1s enzyme (P09871 16-437 partner limits assumed): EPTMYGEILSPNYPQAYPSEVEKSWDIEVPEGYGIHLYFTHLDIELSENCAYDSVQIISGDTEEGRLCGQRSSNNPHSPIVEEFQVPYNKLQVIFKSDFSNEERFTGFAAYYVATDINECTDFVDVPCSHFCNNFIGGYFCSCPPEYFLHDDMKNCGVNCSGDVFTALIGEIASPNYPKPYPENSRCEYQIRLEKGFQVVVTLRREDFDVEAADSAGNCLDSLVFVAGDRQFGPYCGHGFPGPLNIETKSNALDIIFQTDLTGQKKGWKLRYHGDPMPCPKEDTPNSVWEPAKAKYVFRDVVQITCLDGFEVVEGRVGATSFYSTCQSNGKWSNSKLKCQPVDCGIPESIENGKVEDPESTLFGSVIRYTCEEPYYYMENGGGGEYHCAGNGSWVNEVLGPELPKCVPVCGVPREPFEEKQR

| SMILES | IC50 |
| --- | --- |
| Nc1nc(-c2csc(CNC(=O)[C@@H]3CC4(CN3C(=O)CNC(=O)c3ccc(Oc5ccc(F)cc5)cc3)OCCO4)c2)cs1 [Compound 186, (S)—N-((4-(2-aminothiazol-4-yl)thiophen-2-yl)methyl)-7-((4-(4-fluorophenoxy)benzoyl)glycyl)-1,4-dioxa-7-azaspiro[4.4]nonane-8-carboxamide] | > 1 µM |
| C[C@@H](NC(=O)[C@@H]1C[C@@H](OC(F)F)CN1C(=O)CNC(=O)c1ccc2c(c1)-c1ccccc1C2(C)C)c1cc(C(=N)N)cs1 [Compound 132, (2S,4R)—N—((R)-1-(4-carbamimidoylthiophen-2-yl)ethyl)-4-(difluoromethoxy)-1-((9,9-dimethyl-9H-fluorene-3-carbonyl)glycyl)pyrrolidine-2-carboxamide] | < 0.1 µM |
| C[C@@H](NC(=O)[C@@H]1CC2(CN1C(=O)CNC(=O)c1cc(F)c(-c3ccc(F)cc3)cn1)OCCO2)c1cc(C(=N)N)cs1 [Compound 181, (S)—N—((R)-1-(4-carbamimidoylthiophen-2-yl)ethyl)-7-((4-fluoro-5-(4-fluorophenyl)picolinoyl)glycyl)-1,4-dioxa-7-azaspiro[4.4]nonane-8-carboxamide] | < 0.1 µM |
| C[C@@H](NC(=O)[C@@H]1C[C@@H](OC(F)F)CN1C(=O)CNC(=O)c1ccc(Oc2ccc(F)cc2)cc1)c1cc(-c2ncc[nH]2)cs1 [Compound 86, (2S,4R)—N—((R)-1-(4-(1H-imidazol-2-yl)thiophen-2-yl)ethyl)-4-(difluoromethoxy)-1-((4-(4-fluorophenoxy)benzoyl)glycyl)pyrrolidine-2-carboxamide] | < 0.1 µM |
| C[C@@H](NC(=O)[C@@H]1CC2(CN1C(=O)CNC(=O)c1ccc(-c3ccc(F)cn3)cc1)OCCO2)c1cc(C(=N)N)cs1 [Compound 164, (S)—N—((R)-1-(4-carbamimidoylthiophen-2-yl)ethyl)-7-((4-(5-fluoropyridin-2-yl)benzoyl)glycyl)-1,4-dioxa-7-azaspiro[4.4]nonane-8-carboxamide] | < 0.1 µM |
| N=C(N)c1csc(CNC(=O)[C@@H]2C[C@@H](OC(F)F)CN2C(=O)CNC(=O)c2ccc(Oc3ccc(F)cc3)cc2)c1 [Compound 3, (2S,4R)—N-((4-carbamimidoylthiophen-2-yl)methyl)-4-(difluoromethoxy)-1-((4-(4-fluorophenoxy)benzoyl)glycyl)pyrrolidine-2-carboxamide] | < 0.1 µM |

Same assay, conditions: Human complement C1s enzyme 1.16 nM, substrate Z-L-Lys-SBzl 100 μM, assay of Example 3; read-out: IC50 (Stars)

| SMILES | IC50 |
| --- | --- |
| C[C@@H](NC(=O)[C@@H]1C[C@@H](OC(F)F)CN1C(=O)CNC(=O)c1ccc2sc3ccccc3c2c1)c1cc(C(=N)N)cs1 [Compound 353, (2S,4R)—N—((R)-1-(4-carbamimidoylthiophen-2-yl)ethyl)-1-((dibenzo[b,d]thiophene-2-carbonyl)glycyl)-4-(difluoromethoxy)pyrrolidine-2-carboxamide] | < 0.1 µM |
| CC(=O)NCCNC[C@@]1(F)C[C@@H](C(=O)N[C@H](C)c2cc(C(=N)N)cs2)N(C(=O)CNC(=O)c2ccc3c(c2)-c2ccccc2C3(F)F)C1 [Compound 269, (2S,4S)-4-(((2-acetamidoethyl)amino)methyl)-N—((R)-1-(4-carbamimidoylthiophen-2-yl)ethyl)-1-((9,9-difluoro-9H-fluorene-3-carbonyl)glycyl)-4-fluoropyrrolidine-2-carboxamide] | < 0.1 µM |
| C[C@@H](NC(=O)[C@@H]1C[C@](F)(CF)CN1C(=O)CNC(=O)c1ccc2c(c1)S(=O)(=O)c1ccccc1-2)c1cc(C(=N)N)cs1 [Compound 375, (2S,4R)—N—((R)-1-(4-carbamimidoylthiophen-2-yl)ethyl)-1-((5,5-dioxidodibenzo[b,d]thiophene-3-carbonyl)glycyl)-4-fluoro-4-(fluoromethyl)pyrrolidine-2-carboxamide] | < 0.1 µM |
| N=C(N)c1csc(CCNC(=O)[C@@H]2CC3(CN2C(=O)CNC(=O)c2ccc4c(c2)-c2ccccc2C4(F)F)OCCO3)c1 [Compound 251, (S)—N-(2-(4-carbamimidoylthiophen-2-yl)ethyl)-7-((9,9-difluoro-9H-fluorene-3-carbonyl)glycyl)-1,4-dioxa-7-azaspiro[4.4]nonane-8-carboxamide] | < 0.1 µM |
| COC[C@@]1(F)C[C@@H](C(=O)N[C@H](C)c2cc(C(=N)N)cs2)N(C(=O)CNC(=O)c2ccc3cc4ccccc4cc3c2)C1 [Compound 224, (2S,4R)-1-[2-(anthracen-2-ylformamido)acetyl]-N-[(1R)-1-(4-carbamimidoylthiophen-2-yl)ethyl]-4-fluoro-4-(methoxymethyl)pyrrolidine-2-carboxamide] | < 0.1 µM |
| N=C(N)c1csc(CNC(=O)[C@@H]2CC3(CN2C(=O)CNC(=O)c2ccc(-c4ccc(C(=O)O)c(F)c4)cc2)OCCO3)c1 [Compound 213, (S)-4′-((2-(8-(((4-carbamimidoylthiophen-2-yl)methyl)carbamoyl)-1,4-dioxa-7-azaspiro[4.4]nonan-7-yl)-2-oxoethyl)carbamoyl)-3-fluoro-[1,1′-biphenyl]-4-carboxylic acid] | > 1 µM |
| C[C@@H](NC(=O)[C@@H]1C[C@](F)(Cn2ccnn2)CN1C(=O)CNC(=O)c1ccc2c(c1)-c1ccccc1C2(F)F)c1cc(C(=N)N)cs1 [Compound 260, (2S,4R)-4-((1H-1,2,3-triazol-1-yl)methyl)-N—((R)-1-(4-carbamimidoylthiophen-2-yl)ethyl)-1-((9,9-difluoro-9H-fluorene-3-carbonyl)glycyl)-4-fluoropyrrolidine-2-carboxamide] | < 0.1 µM |
| C[C@@H](NC(=O)[C@@H]1C[C@@H](S(C)(=O)=O)CN1C(=O)CNC(=O)c1ccc2c(c1)S(=O)(=O)c1ccccc1-2)c1cc(C(=N)N)cs1 [Compound 381, (2S,4R)—N—((R)-1-(4-carbamimidoylthiophen-2-yl)ethyl)-1-((5,5-dioxidodibenzo[b,d]thiophene-3-carbonyl)glycyl)-4-(methylsulfonyl) pyrrolidine-2-carboxamide] | < 0.1 µM |
| COC1c2ccccc2-c2cc(C(=O)NCC(=O)N3CC4(C[C@H]3C(=O)N[C@H](C)c3cc(C(=N)N)cs3)OCCO4)ccc21 (stereo partly drawn) [Compound 277, (8S)—N—((R)-1-(4-carbamimidoylthiophen-2-yl)ethyl)-7-((9-methoxy-9H-fluorene-3-carbonyl)glycyl)-1,4-dioxa-7-azaspiro[4.4]nonane-8-carboxamide] | < 0.1 µM |
| N=C(N)c1csc(CNC(=O)[C@@H]2CC3(CN2C(=O)CNC(=O)c2ccc(-c4ccc(C(=O)O)cc4F)cc2)OCCO3)c1 [Compound 242, (S)-4′-((2-(8-(((4-carbamimidoylthiophen-2-yl)methyl)carbamoyl)-1,4-dioxa-7-azaspiro[4.4]nonan-7-yl)-2-oxoethyl)carbamoyl)-2-fluoro-[1,1′-biphenyl]-4-carboxylic acid] | < 0.1 µM |
| NCCCC(=O)Nc1csc(CNC(=O)[C@@H]2CC3(CN2C(=O)CNC(=O)c2ccc(Oc4ccc(F)cc4)cc2)OCCO3)c1 [Compound 320, (S)-N-((4-(4-aminobutanamido)thiophen-2-yl)methyl)-7-((4-(4-fluorophenoxy)benzoyl)glycyl)-1,4-dioxa-7-azaspiro[4.4]nonane-8-carboxamide] | > 1 µM |
| N=C(N)c1csc(CNC(=O)[C@@H]2CC3(CN2C(=O)CNC(=O)c2ccc(-c4ccc(F)cc4C(=O)O)cc2)OCCO3)c1 [Compound 227, (S)-4′-((2-(8-(((4-carbamimidoylthiophen-2-yl)methyl)carbamoyl)-1,4-dioxa-7-azaspiro[4.4]nonan-7-yl)-2-oxoethyl)carbamoyl)-4-fluoro-[1,1′-biphenyl]-2-carboxylic acid] | < 0.1 µM |
| N=C(N)c1csc(CNC(=O)[C@@H]2CC3(CN2C(=O)CNC(=O)c2ccc(-c4ccccc4)o2)OCCO3)c1 [Compound 297, (S)—N-((4-carbamimidoylthiophen-2-yl)methyl)-7-((5-phenylfuran-2-carbonyl)glycyl)-1,4-dioxa-7-azaspiro[4.4]nonane-8-carboxamide] | < 0.1 µM |
| O=C(NCC(=O)N1CC2(C[C@H]1C(=O)NCc1ccn[nH]1)OCCO2)c1ccc(Oc2ccccc2)cc1 [Compound 384, (S)-N-((1H-pyrazol-5-yl)methyl)-7-((4-phenoxybenzoyl)glycyl)-1,4-dioxa-7-azaspiro[4.4]nonane-8-carboxamide] | > 1 µM |
| C[C@@H](NC(=O)[C@@H]1C[C@H](C(F)(F)F)CN1C(=O)CNC(=O)c1ccc(Oc2ccc(F)cc2)cc1)c1cc(C(=N)N)cs1 [Compound 323, (2S,4S)—N—((R)-1-(4-carbamimidoylthiophen-2-yl)ethyl)-1-((4-(4-fluorophenoxy)benzoyl)glycyl)-4-(trifluoromethyl)pyrrolidine-2-carboxamide] | < 0.1 µM |

Same assay, conditions: Human complement C1s enzyme 1.16 nM, substrate Z-L-Lys-SBzl; assay of Example 3; read-out: IC50 (Stars)

| SMILES | IC50 |
| --- | --- |
| C[C@@H](NC(=O)[C@@H]1C[C@]2(COCCCN(C)C)C[C@@H]2N1C(=O)CNC(=O)c1ccc2c(c1)-c1ccccc1C2(F)F)c1cc(C(=N)N)cs1 [Compound 422, (1S,3S,5R)-N-((R)-1-(4-carbamimidoylthiophen-2-yl)ethyl)-2-((9,9-difluoro-9H-fluorene-3-carbonyl)glycyl)-5-((3-(dimethylamino)propoxy)methyl)-2-azabicyclo[3.1.0]hexane-3-carboxamide] | < 0.1 µM |
| C[C@@H](NC(=O)[C@@H]1C[C@]2(COCCCCN(C)C)C[C@@H]2N1C(=O)CNC(=O)c1ccc2c(c1)-c1ccccc1C2(F)F)c1cc(C(=N)N)cs1 [Compound 415, (1S,3S,5R)—N—((R)-1-(4-carbamimidoylthiophen-2-yl)ethyl)-2-((9,9-difluoro-9H-fluorene-3-carbonyl)glycyl)-5-((4-(dimethylamino)butoxy)methyl)-2-azabicyclo[3.1.0]hexane-3-carboxamide] | < 0.1 µM |
| CC1c2ccccc2-c2cc(C(=O)NCC(=O)N3C[C@@](F)(CF)C[C@H]3C(=O)N[C@H](C)c3cc(C(=N)N)cs3)ccc21 (stereo partly drawn) [Compound 417, (2S,4R)—N—((R)-1-(4-carbamimidoylthiophen-2-yl)ethyl)-4-fluoro-4-(fluoromethyl)-1-((9-methyl-9H-fluorene-3-carbonyl)glycyl)pyrrolidine-2-carboxamide] | < 0.1 µM |
